In one test the target is STAT3 (Homo sapiens, UniProt P40763). In words: STAT3 HiBiT degradation assay in transfected A549 cells. It is filed as cell-based. Also on record: expressed in transfected cells; host or cells: A549. To be noted: A549, 24 h; read-out: STAT3 HiBiT A549 degradation 24 h: Average external-Abs DC50. The gist of the method:
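Degradation read as HiBiT-tagged STAT3 luminescence (Nano-Glo lytic reagent, 10 min, room temperature) following 24 h compound treatment of transfected A549 cells at 3-fold, 10 points. Percent remaining signal computed against controls and fitted with a four-parameter logistic; DC50 reported as letter bins (A <0.01 to D >1.0 µM).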
In general terms: With HiBiT, luminescence reflects the tagged protein that the partner subunit can reach.
STAT3, sequence (P40763 whole entry): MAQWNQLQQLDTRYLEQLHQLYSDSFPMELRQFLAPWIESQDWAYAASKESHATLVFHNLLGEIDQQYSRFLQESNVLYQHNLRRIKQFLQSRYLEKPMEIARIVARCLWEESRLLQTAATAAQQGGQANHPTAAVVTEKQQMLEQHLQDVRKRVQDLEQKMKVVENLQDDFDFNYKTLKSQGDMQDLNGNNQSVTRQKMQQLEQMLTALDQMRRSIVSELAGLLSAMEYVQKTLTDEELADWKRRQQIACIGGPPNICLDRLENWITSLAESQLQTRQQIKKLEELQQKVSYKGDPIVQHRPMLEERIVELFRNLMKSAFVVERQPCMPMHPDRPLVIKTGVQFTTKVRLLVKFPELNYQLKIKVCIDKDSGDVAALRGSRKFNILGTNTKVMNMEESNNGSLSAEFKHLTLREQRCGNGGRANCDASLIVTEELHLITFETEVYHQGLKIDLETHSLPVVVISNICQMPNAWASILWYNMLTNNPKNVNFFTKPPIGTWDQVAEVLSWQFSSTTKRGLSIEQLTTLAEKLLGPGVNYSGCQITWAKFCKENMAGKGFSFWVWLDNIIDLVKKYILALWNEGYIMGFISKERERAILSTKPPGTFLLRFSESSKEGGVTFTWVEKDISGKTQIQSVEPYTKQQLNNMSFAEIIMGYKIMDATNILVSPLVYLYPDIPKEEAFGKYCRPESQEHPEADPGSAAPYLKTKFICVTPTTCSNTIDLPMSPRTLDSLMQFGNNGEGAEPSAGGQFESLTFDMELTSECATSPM
As a reminder, the DC50 is the midpoint of the concentration-degradation curve. `Cc1ncsc1-c1ccc([C@H](C)NC(=O)[C@@H]2C[C@@H](O)CN2C(=O)[C@@H](NC(=O)CCCCc2ccc(CO[C@H](C)[C@H](CCC(N)=O)NC(=O)[C@@H]3Cc4cccc5c4N3C(=O)[C@@H](NC(=O)c3cc4cc(C(=O)P(=O)(O)O)ccc4[nH]3)CC5)c(F)c2)C(C)(C)C)cc1` [Compound I-225, diammonium 2-[[(2S,11S)-2-[[(3S,4R)-1-carbamoyl-4-[[2-fluoro-4-(4-[[(2S)-1-[(2S,4R)-4-hydroxy-2-[[(1S)-1-[4-(4-methyl-1,3-thiazol-5-yl)phenyl]ethyl]carbamoyl]pyrrolidin-1-yl]-3,3-dimethyl-1-oxobutan-2-yl]carbamoyl]butyl)phenyl]methoxy]pentan-3-yl]carbamoyl]-12-oxo-1-azatricyclo[6.4.1.0^[4,13]]trideca-4(13),5,7-trien-11-yl]carbamoyl]-1H-indole-5-carbonylphosphonate]: the DC50 is 100 to 1000 nM.

`Cc1ncsc1-c1ccc([C@H](C)NC(=O)[C@@H]2C[C@@H](O)CN2C(=O)[C@@H](NC(=O)CCCCCc2ccnc([C@H](CCC(N)=O)NC(=O)[C@@H]3Cc4cccc5c4N3C(=O)[C@@H](NC(=O)c3cc4cc(C(=O)P(=O)(O)O)ccc4[nH]3)CC5)c2)C(C)(C)C)cc1` [Compound I-268, 2-[[(2S,11S)-2-[[(1S)-3-carbamoyl-1-[4-(5-[[(2S)-1-[(2S,4R)-4-hydroxy-2-[[(1S)-1-[4-(4-methyl-1,3-thiazol-5-yl)phenyl]ethyl]carbamoyl]pyrrolidin-1-yl]-3,3-dimethyl-1-oxobutan-2-yl]carbamoyl]pentyl)pyridin-2-yl]propyl]carbamoyl]-12-oxo-1-azatricyclo [6.4.1.0^[4,13]]trideca-4(13),5,7-trien-11-yl]carbamoyl]-1H-indole-5-carbonylphosphonic acid]: the DC50 lay in the range of 100 to 1000 nM.

For the compound `Cc1ncsc1-c1ccc(CNC(=O)[C@@H]2C[C@@H](O)CN2C(=O)[C@@H](NC(=O)CCc2ccc3ccc(CO[C@H](C)[C@H](CCC(N)=O)NC(=O)[C@@H]4Cc5cccc6c5N4C(=O)[C@@H](NC(=O)c4cc5cc(C(=O)P(=O)(O)O)ccc5[nH]4)CC6)cc3c2)C(C)(C)C)cc1` [Compound I-126], the DC50 is above 1000 nM.

Consider `Cn1c(=O)n(C2CCC(=O)NC2=O)c2ccc(CN3CCN(CC(=O)N4CC[C@H]5CC[C@@H](C(=O)N[C@@H](CCC(N)=O)C(=O)NC(c6ccccc6)c6ccccc6)N5C(=O)[C@@H](NC(=O)c5cc6cc(C(=O)P(=O)(O)O)ccc6[nH]5)C4)CC3)cc21` (stereo partly drawn) [Compound I-157, 2-[[(5S,8S,10aR)-8-[[(1S)-3-carbamoyl-1-(diphenylmethylcarbamoyl)propyl]carbamoyl]-3-[2-(4-[[1-(2,6-dioxopiperidin-3-yl)-3-methyl-2-oxo-1,3-benzodiazol-5-yl]methyl]piperazin-l-yl)acetyl]-6-oxo-octahydropyrrolo[1,2-a][1,5]diazocin-5-yl]carbamoyl]-1H-indole-5-carbonylphosphonic acid], for which the DC50 was in the range of 100 to 1000 nM.

For the compound `Cc1ncsc1-c1ccc([C@H](C)NC(=O)[C@@H]2C[C@@H](O)CN2C(=O)[C@@H](NC(=O)CCCCCc2ccc([C@H](CCC(N)=O)NC(=O)[C@@H]3Cc4cccc5c4N3C(=O)[C@@H](NC(=O)c3cc4cc(C(=O)P(=O)(O)O)ccc4[nH]3)CC5)nc2)C(C)(C)C)cc1` [Compound I-238], the DC50 is 100 to 1000 nM.

As to `Cc1ncsc1-c1ccc(CNC(=O)[C@@H]2C[C@@H](O)CN2C(=O)[C@@H](NC(=O)CCCCCC#CCOC[C@H](CCC(N)=O)NC(=O)[C@@H]2Cc3cccc4c3N2C(=O)[C@@H](NC(=O)c2cc3cc(C(=O)P(=O)(O)O)ccc3[nH]2)CC4)C(C)(C)C)cc1` [Compound I-159], the DC50 fell in the range of 100 to 1000 nM.

As to `Cc1ncsc1-c1ccc([C@H](C)NC(=O)[C@@H]2C[C@@H](O)CN2C(=O)[C@@H](NC(=O)CCCCCc2cc(F)cc(NC(=O)[C@H](CCC(N)=O)NC(=O)[C@@H]3Cc4cccc5c4N3C(=O)[C@@H](NC(=O)c3cc4cc(C(=O)P(=O)(O)O)ccc4[nH]3)CC5)c2)C(C)(C)C)cc1` [Compound I-264, 63 2-[[(2S,11S)-2-[[(1S)-3-carbamoyl-1-[[3-fluoro-5-(5-[[(2S)-1-[(2S,4R)-4-hydroxy-2-[[(1S)-1-[4-(4-methyl-1,3-thiazol-5-yl)phenyl]ethyl]carbamoyl]pyrrolidin-1-yl]-3,3-dimethyl-1-1-oxobutan-2-yl]carbamoyl]pentyl)phenyl]carbamoyl]propyl]carbamoyl]-12-oxo-1-azatricyclo[6.4.1.0^[4,13]]trideca-4(13),5,7-trien-11-yl]carbamoyl]-1H-indole-5-carbonylphosphonic acid 7], the 50% degradation concentration (DC50) was in the range of 10 to 100 nM.

Consider `Cc1ncsc1-c1ccc(CNC(=O)[C@@H]2C[C@@H](O)CN2C(=O)[C@@H](NC(=O)CCCCCc2cccc(OC[C@H](CCC(N)=O)NC(=O)[C@@H]3Cc4cccc5c4N3C(=O)[C@@H](NC(=O)c3cc4cc(C(=O)P(=O)(O)O)ccc4[nH]3)CC5)c2)C(C)(C)C)cc1` [Compound I-164, 2-[[(2S,11S)-2-[[(2S)-4-carbamoyl-1-[3-(5-[[(2S)-1-[(2S,4R)-4-hydroxy-2-([[4-(4-methyl-1,3-thiazol-5-yl)phenyl]methyl]carbamoyl)pyrrolidin-1-yl]-3,3-dimethyl-1-oxobutan-2-yl]carbamoyl]pentyl)phenoxy]butan-2-yl]carbamoyl]-12-oxo-1-azatricyclo[6.4.1.0^[4,13]]trideca-4(13),5,7-trien-11-yl]carbamoyl]-1H-indole-5-carbonylphosphonic acid], for which the DC50 was 10 to 100 nM.

For `Cc1ncsc1-c1ccc([C@H](C)NC(=O)[C@@H]2C[C@@H](O)CN2C(=O)[C@@H](NC(=O)CCCc2cccc(OC[C@@H](NC(=O)[C@@H]3Cc4cccc5c4N3C(=O)[C@@H](NC(=O)c3cc4cc(C(=O)P(=O)(O)O)ccc4[nH]3)CC5)C(N)=O)c2)C(C)(C)C)cc1` [Compound I-194, diammonium 2-[[(2S,11S)-2-[[(2S)-4-carbamoyl-1-[3-(3-[[(2S)-1-[(2S,4R)-4-hydroxy-2-[[(1S)-1-[4-(4-methyl-1,3-thiazol-5-yl)phenyl]ethyl]carbamoyl]pyrrolidin-1-yl]-3,3-dimethyl-1-oxobutan-2-yl]carbamoyl]propyl)phenoxy]butan-2-yl]carbamoyl]-12-oxo-1-azatricyclo[6.4.1.0^[4,13]]trideca-4(13),5,7-trien-11-yl]carbamoyl]-1H-indole-5-carbonylphosphonate], the DC50 was in the range of 10 to 100 nM.

For `Cc1cc(CCCCCC(=O)N[C@H](C(=O)N2C[C@H](O)C[C@H]2C(=O)N[C@@H](C)c2ccc(-c3scnc3C)cc2)C(C)(C)C)cc(OC[C@H](CCC(N)=O)NC(=O)[C@@H]2Cc3cccc4c3N2C(=O)[C@@H](NC(=O)c2cc3cc(C(=O)P(=O)(O)O)ccc3[nH]2)CC4)c1` [Compound I-213, 2-[[(2S,11S)-2-[[(2S)-4-carbamoyl-1-[3-(5-[[(2S)-1-[(2S,4R)-4-hydroxy-2-[[(1S)-1-[4-(4-methyl-1,3-thiazol-5-yl)phenyl]ethyl]carbamoyl]pyrrolidin-1-yl]-3,3-dimethyl-1-oxobutan-2-yl]carbamoyl]pentyl)-5-methylphenoxy]butan-2-yl]carbamoyl]-12-oxo-1-azatricyclo[6.4.1.0^[4,13]]trideca-4(13),5,7-trien-11-yl]carbamoyl]-1H-indole-5-carbonylphosphonic acid], the DC50 was below 10 nM.

`Cc1ncsc1-c1ccc(CNC(=O)[C@@H]2C[C@@H](O)CN2C(=O)[C@@H](NC(=O)CCCCCc2ccc(CNC(=O)[C@H](CCC(N)=O)NC(=O)[C@@H]3Cc4cccc5c4N3C(=O)[C@@H](NC(=O)c3cc4cc(C(=O)P(=O)(O)O)ccc4[nH]3)CC5)cc2)C(C)(C)C)cc1` [Compound I-140]: the half-maximal degradation concentration (DC50) is above 1000 nM.

For `Cc1cc(CCCC(=O)N[C@H](C(=O)N2C[C@H](O)C[C@H]2C(=O)N[C@@H](C)c2ccc(-c3scnc3C)cc2)C(C)(C)C)c(F)c(OC[C@H](CCC(N)=O)NC(=O)[C@@H]2Cc3cccc4c3N2C(=O)[C@@H](NC(=O)c2cc3cc(C(=O)P(=O)(O)O)ccc3[nH]2)CC4)c1` [Compound I-235, diammonium 2-[[(2S,11S)-2-[[(2S)-4-carbamoyl-1-[2-fluoro-3-(3-[[(2S)-1-[(2S,4R)-4-hydroxy-2-[[(1S)-1-[4-(4-methyl-1,3-thiazol-5-yl)phenyl]ethyl]carbamoyl]pyrrolidin-1-yl]-3,3-dimethyl-1-oxobutan-2-yl]carbamoyl]propyl)-5-methyl-phenoxy]butan-2-yl]carbamoyl]-12-oxo-1-azatricyclo[6.4.1.0^[4,13]]trideca-4(13),5,7-trien-11-yl]carbamoyl]-1H-indole-5-carbonylphosphonate], the DC50 was above 1000 nM.

On to `CC(=O)N1CC[C@H]2CC[C@@H](C(=O)N[C@@H](CCC(=O)O)COc3cc(F)cc(CCCC(=O)N[C@H](C(=O)N4C[C@H](O)C[C@H]4C(=O)N[C@@H](C)c4ccc(-c5scnc5C)cc4)C(C)(C)C)c3Cl)N2C(=O)[C@@H](NC(=O)c2cc3cc(C(=O)P(=O)(O)O)ccc3[nH]2)C1` [Compound I-289], for which the DC50 was below 10 nM.

The same test, now with this note: read-out: STAT3 HiBiT A549 degradation 24 h: Average external-Abs DC50; A549, 24 h.
With `Cn1c(=O)n(C2CCC(=O)NC2=O)c2cc(CCCCCCC(=O)N3CC[C@H]4CC[C@@H](C(=O)N[C@@H](CCC(N)=O)C(=O)NC(c5ccccc5)c5ccccc5)N4C(=O)[C@@H](NC(=O)c4cc5cc(C(=O)P(=O)(O)O)ccc5[nH]4)C3)ccc21` (stereo partly drawn) [Compound I-134, 2-[[(5S,8S,10aR)-8-[[(1S)-3-carbamoyl-1-(diphenylmethylcarbamoyl)propyl]carbamoyl]-3-[7-[3-(2,6-dioxopiperidin-3-yl)-1-methyl-2-oxo-1,3-benzodiazol-5-yl]heptanoyl]-6-oxo-octahydropyrrolo[1,2-a][1,5]diazocin-5-yl]carbamoyl]-1H-indole-5-carbonylphosphonic acid], the DC50 was above 1000 nM.

The values are drawn from patent US12077555B2, “STAT degraders and uses thereof” (Kymera Therapeutics, Inc., priority 2019, dated 2024).
